Assay results from PubChem BioAssay AID434987 (Southern Research Specialized Biocontainment Screening …, 2010).
Calls of active or inactive are those of the source. No rule for the calls is given here.

Tested on: M. tuberculosis H37Rv growth inhibition with meropenem
Experiment: dose response, H37Rv, with and without meropenem (AID 434987);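 also: growth over 7 days at 37 °C before Alamar Blue read on day 9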
[1] = M. tuberculosis H37Rv growth inhibition, measured here: IC50 without meropenem
[2] = M. tuberculosis H37Rv growth inhibition, measured here: IC90 without meropenem
[3] = measured here: IC90 with meropenem

SMILES | IC50 | IC50 [1] [µM] | IC90 [2] [µM] | IC90 [3] [µM]
CCC(=O)NC(=S)Nc1ccc(NC(=O)c2ccc(C)c([N+](=O)[O-])c2)cc1 | > 100 µM (inactive) | > 100 | > 100 | > 100
COc1ccc(CCNCc2csc3nc4ccccc4n23)cc1OC | 50 µM (inactive) | 93.7 | > 100 | > 100
N/C(=N\c1nc2ccccc2o1)NC(=O)c1ccccc1Br | < 0.2 µM | 28.4 | > 100 | > 100
COc1ccc(C(=O)Nc2cccc3c2CCCC3)c(OC)c1 | 23.4 µM | > 100 | > 100 | > 100
CCn1c(-c2ccc(-c3ccccc3)cc2)c[nH]c1=S | 29.1 µM (inactive) | 47.8 | > 100 | > 100
COc1cc(C(=O)NNC(=O)c2cc(-c3ccccc3)n[nH]2)cc(OC)c1C | 19.7 µM | > 100 | > 100 | > 50
COc1ccc(CNC(=O)c2sc3nc4c(c(C(F)(F)F)c3c2N)CCC4)cc1 | 7.76 µM (inactive) | 10.5 | > 25 | > 100
Cc1ccc(C(=O)OCCN2CCN(c3ncc(C(F)(F)F)cc3Cl)CC2)cc1 | > 100 µM (inactive) | > 100 | > 100 | > 100
Cc1ccc(/C=N\NC(=O)c2csnn2)cc1 | 66.4 µM (inactive) | > 100 | > 100 | > 100
CCN(CC)C(=O)Cn1cc(C(=O)C(=O)N2CCN(c3ccccc3)CC2)c2ccccc21 | > 100 µM (inactive) | > 100 | > 100 | > 100
Cc1cc(C(=O)Nc2nnc(-c3ccccc3)s2)no1 | 45.1 µM (inactive) | 48.4 | > 100 | > 100
CC(C)N1CCc2c(sc(NC(=O)c3cc(-c4cccs4)nc4ccccc34)c2C(N)=O)C1 | 13.7 µM (inactive) | 24.8 | > 100 | > 100
O=C(/C=C/c1ccc([N+](=O)[O-])cc1)c1cccs1 | 5.35 µM | 22.2 | 95.1 | 12.2
CCCCC(=O)Nc1ccc(NC(=S)NC(=O)CCCCl)cc1OC | > 50 µM (inactive) | 94.9 | > 100 | > 50
CC(=O)c1c(C)[nH]c(C(=O)OCC(=O)Nc2nnc(-c3ccccc3)o2)c1C | 4.19 µM | > 100 | > 100 | > 100
COC(=O)c1cc(OC)c(OC)cc1NC(=S)N1CCN(C)CC1 | > 100 µM (inactive) | > 100 | > 100 | > 100
O=C(Nc1nc(-c2ccc3c(c2)OCCO3)cs1)c1ccc(S(=O)(=O)N2CCCCC2)cc1 | > 100 µM (inactive) | > 100 | > 100 | > 100
Cc1c2c(nc3c(C(=O)NC4CCCC4)cnn13)CCCC2 | 73.4 µM (inactive) | > 100 | > 100 | > 100
O=C(/C=C/c1cccnc1)c1ccc(O)cc1 | 19.8 µM (inactive) | 34.2 | 46.9 | 50.4
C=CCSc1nc2c(c(-c3ccsc3)c1C#N)CN(C)CC2 | 50.6 µM (inactive) | 65.7 | > 100 | 55.1

SMILES | IC50 | IC50 [1] [µM] | IC90 [2] [µM] | IC90 [3] [µM]
Cc1cccc(-n2nc([N+](=O)[O-])c(=NC3CCN(Cc4ccccc4)CC3)n2O)c1 | 25.9 µM (inactive) | 45.8 | 49 | 30.5
CCc1ccc(NC(=S)Nc2ccc(S(=O)(=O)Nc3ncccn3)cc2)cc1 | 61.4 µM (inactive) | > 100 | > 100 | > 100
Cc1ccc(Cn2c(NC(=O)c3ccco3)nc3ccccc32)cc1 | 2.62 µM | > 100 | > 100 | > 100
N#Cc1c(NC(=O)CSc2nc(-c3ccco3)cc(C(F)(F)F)n2)sc2c1CCCC2 | > 100 µM (inactive) | > 100 | > 100 | > 100
O=C1Nc2c(ccc(Cl)c2Cl)C(=O)C1(F)c1ccccc1 (configuration not stated) | 23.7 µM | 95.6 | > 100 | 71.7
CC(=O)NC(=S)Nc1ccc(NC(=O)c2cccs2)cc1 | 48.7 µM (inactive) | > 100 | > 100 | > 100
Cn1c(/C=C/c2ccc(Cl)cc2)nc2ccccc2c1=O | 52.1 µM (inactive) | > 100 | > 100 | > 100
Cc1ccc(S(=O)(=O)N[C@H](C(=O)OCn2nnc3ccccc3c2=O)C(C)C)cc1 | > 100 µM (inactive) | > 100 | > 100 | > 100
COc1cccc(NC(=S)Nc2cc(C)cc(C)n2)c1 | 6.41 µM | > 100 | > 100 | > 100
N#Cc1c(C(F)(F)F)cc(-c2ccccc2)nc1SCc1nc(N)nc(N2CCOCC2)n1 | > 100 µM (inactive) | > 100 | > 100 | > 100
CCOC(=O)c1c(NC(=S)NC(=O)c2ccc(Cn3cc(Cl)cn3)o2)sc2c1CCC(C)C2 (configuration not stated) | > 100 µM (inactive) | > 100 | > 100 | > 100
COCc1cc(=O)n2[nH]cc(-c3ccccc3)c2n1 | 10.1 µM | 41.4 | > 100 | 15.5
CCC(=O)Nc1cc(OC)c(NC(=O)c2ccccc2)cc1OC | 22.7 µM | 93.4 | > 100 | > 100
Cc1c(C=O)c(C=O)c(C)n1Cc1ccccc1 | 31.9 µM (inactive) | 52 | > 100 | 69.3
O=C(CCN1CCOCC1)c1ccc(N2CCCCC2)cc1 | 14 µM (inactive) | 27.5 | 37.3 | 72.7
CCCCCc1ccc(-c2ccc(/C=C/C(N)=O)cc2)nc1 | > 100 µM (inactive) | > 100 | > 100 | > 100
Cc1ccc2c(Cl)cc(Cl)c(OCc3c(C)noc3C)c2n1 | 25.3 µM | > 100 | > 100 | > 100
COc1nc(Nc2nc3ccccc3c(=O)[nH]2)nc2ccc(C)cc12 | > 100 µM (inactive) | > 100 | > 100 | > 100
CCOC(=O)Cn1c(=NC(=O)C2CC2)sc2c(C)cc(C)cc21 | 9.84 µM | > 100 | > 100 | > 100
Cc1cccc(C)c1NC(=O)C1CC2CCC1C2 (configuration not stated) | > 100 µM (inactive) | > 100 | > 100 | > 100

SMILES | IC50 | IC50 [1] [µM] | IC90 [2] [µM] | IC90 [3] [µM]
O=C(Cc1ccccc1)NC(=S)Nc1ccc(N2CCCCC2)cc1 | > 100 µM (inactive) | > 100 | > 100 | > 100
O=C(CSc1ncnc2c1cnn2-c1ccccc1)Nc1ccc2c(c1)OCO2 | 27.3 µM (inactive) | 49.1 | > 100 | > 100
O=C(NCc1cccs1)c1cc(-c2ccccc2)nc2ccccc12 | > 100 µM (inactive) | > 100 | > 100 | > 100
CCNc1nc(CN2CCCCC2)nc2scc(-c3ccccc3)c12 | 8.75 µM | 47.2 | > 100 | 57.3
COc1cc(C(=O)Oc2ccccc2/C=N/NC(=O)c2ccc(C)c(Cl)c2)cc(OC)c1OC | 1.96 µM | > 100 | > 100 | > 3.13
CCOC(=O)N1CCN(CC(=O)Nc2nnc(C(F)(F)F)s2)CC1 | 27.8 µM | > 100 | > 100 | 50.1
CCc1ccc2nc(/N=C(\N)NC(=O)c3ccccc3)nc(C)c2c1 | 1.02 µM | 22.4 | > 50 | > 100
O=C(N/N=C/c1cc([N+](=O)[O-])ccc1O)C1CC1 | 4.14 µM | 58.9 | > 100 | > 100
Cc1ccc(SCc2c(-c3ccccc3)nn(C)c2Cl)cc1 | 20.9 µM | 58.7 | > 100 | > 100
O=C(CSc1nnc(SCc2ccc(Cl)cc2)s1)c1ccc2c(c1)OCO2 | > 100 µM (inactive) | > 100 | > 100 | > 100
CCOC(=O)C1=C(C)N=c2s/c(=C\c3ccncc3)c(=O)n2C1c1ccc2c(c1)OCO2 (configuration not stated) | 69.7 µM (inactive) | 95.7 | > 100 | > 100
O=C(NNC(=O)c1ccc(Oc2cc(Cl)cc(Cl)c2)o1)c1ccccc1 | > 100 µM (inactive) | > 100 | > 100 | > 100
CCOc1ccc(-c2nnc(-c3ccc(OC)cc3)o2)cc1 | 4.65 µM | 35.6 | > 100 | > 100
Cn1c(=O)c2[nH]c(CNCc3ccccc3Cl)nc2n(C)c1=O | 37.1 µM | > 100 | > 100 | > 100
CCn1c2ccccc2c2cc(NC(=O)c3cccc(OC)c3OC)ccc21 | > 100 µM (inactive) | > 100 | > 100 | > 100
Cc1cc(C)cc(NC(=O)c2cc(Cl)sc2Cl)c1 | 4.84 µM | > 100 | > 100 | 7.73
Cc1ccc(C(=O)N2CCC3(CC2)Oc2ccc(F)cc2C(=O)C32CC(c3cccnc3)=NO2)s1 (configuration not stated) | 97.5 µM (inactive) | 94.9 | > 100 | > 100
OCCOCCn1c(C2CCCN2c2nc(-c3ccc(F)cc3)cs2)nc2cc(Cl)c(Cl)cc21 (configuration not stated) | > 100 µM (inactive) | > 100 | > 100 | > 100
